# Assay results taken from US9868705B2, “Tetra-aryl cyclobutane inhibitors of androgen receptor action for the treatment of hormone refractory cancer” (The Board of Trustees of the University of Illinois, priority 2013, dated 2018).
# Changes are numbered by the printed parent chain.
# Columns and labels:
# [1] = biological target: T1, W741C AR (Homo sapiens, UniProt P10275, W742C); test: MMTV-luciferase transcription assay in CV-1 cells, W741C AR
# T1 sequence (P10275 1-920 W742C): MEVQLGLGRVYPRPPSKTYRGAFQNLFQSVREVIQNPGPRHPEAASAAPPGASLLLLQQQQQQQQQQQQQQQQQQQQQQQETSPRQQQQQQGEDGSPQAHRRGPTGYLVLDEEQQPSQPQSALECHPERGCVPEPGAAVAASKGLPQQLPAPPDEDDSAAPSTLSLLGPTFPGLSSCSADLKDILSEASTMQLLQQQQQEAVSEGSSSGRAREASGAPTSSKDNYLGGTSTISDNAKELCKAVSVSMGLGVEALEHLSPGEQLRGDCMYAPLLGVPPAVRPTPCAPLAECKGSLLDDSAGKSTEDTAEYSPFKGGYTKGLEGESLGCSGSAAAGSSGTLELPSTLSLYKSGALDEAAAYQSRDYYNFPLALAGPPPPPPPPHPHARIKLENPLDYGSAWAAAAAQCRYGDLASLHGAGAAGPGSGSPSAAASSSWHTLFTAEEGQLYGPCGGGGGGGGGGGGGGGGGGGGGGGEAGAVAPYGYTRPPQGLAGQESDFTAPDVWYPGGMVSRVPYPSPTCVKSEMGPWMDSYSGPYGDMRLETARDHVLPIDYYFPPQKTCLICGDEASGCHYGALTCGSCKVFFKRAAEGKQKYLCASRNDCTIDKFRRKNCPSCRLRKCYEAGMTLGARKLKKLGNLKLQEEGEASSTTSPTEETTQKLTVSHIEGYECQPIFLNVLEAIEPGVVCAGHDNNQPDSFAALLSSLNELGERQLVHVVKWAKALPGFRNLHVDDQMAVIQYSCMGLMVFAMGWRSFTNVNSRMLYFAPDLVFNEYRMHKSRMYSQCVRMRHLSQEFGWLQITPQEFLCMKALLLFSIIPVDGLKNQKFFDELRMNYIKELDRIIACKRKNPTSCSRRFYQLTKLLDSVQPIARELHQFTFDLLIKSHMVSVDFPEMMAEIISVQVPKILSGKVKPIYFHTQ
# [2] = biological target: T2, AR (Homo sapiens, UniProt P10275); test: AR relative binding affinity (RBA)
# T2 sequence (P10275 1-920): T1 sequence (P10275 1-920 W742C) with C742W
smiles,measurement,setting,value
COc1cc([C@H]2[C@H](c3ccccc3)[C@H](c3cc(OC)nc(OC)n3)[C@H]2c2ccccc2)nc(OC)n1 [CB-22],IC50,[1],2360 nM
same,AR RBA,[2],0.056%
